PMC11292009, “Mapping protein binding sites by photoreactive fragment pharmacophores” (Communications Chemistry, 2024)
Several values for one entry are separate records, joined by “and”; a condition that tells them apart may be missing. Equal values may be shown once.

What was measured:
MOLM-13 cells = experiment: CellTiter-Blue cell viability assay, MOLM-13; format: cell-based; details: Homo sapiens, MOLM-13, 72 h
Procedure: MV4-11 and MOLM-13 cell lines were purchased from DSMZ (Braunschweig, Germany), and grown at 37 °C and 5% CO2 in RPMI 1640 medium (Gibco^TM, Thermo Fisher Scientific). Media were supplemented with 10% fetal calf serum (FCS), 10 U/mL penicillin, 10 µg/mL streptomycin and 2 mM L-glutamine (all Gibco^TM, Thermo Fisher Scientific).
To determine the IC50 of the selected compounds on the cell lines, CellTiter-Blue® cell viability assay (Promega) was performed. For this, cells were seeded in 96-well flat bottom plates at a cell density of 10,000 cells/well. Cells were treated in triplicates with the compound of interest at various concentrations or with 10 μM Bortezomib (S1013; Selleck Chemicals, Houston, TX, USA) as a positive control. Cell viability of treated cell lines was measured using CellTiter-Blue® after 72 h incubation. Plates were measured using a GloMax® plate reader (Promega) and IC50 values were determined by non-linear regression using the GraphPad Prism 9.1.1 (GraphPad Software, Inc.) and the data are reported as mean values ± SEM.

STAT5B NTD = biological target: T1, STAT5B NTD (Homo sapiens, UniProt P51692); experiment: Microscale thermophoresis (MST), without irradiation; format: binding; details: for ΔFnorm: Fnorm - Unbound value, Php097 concentration [log; for Fnorm: MST raw data, PhP097 concentration [log
T1 construct: His-SUMO (N, cleaved yes); made in house; host or cells: E. coli BL21 RILP
T1 sequence (P51692 1-123): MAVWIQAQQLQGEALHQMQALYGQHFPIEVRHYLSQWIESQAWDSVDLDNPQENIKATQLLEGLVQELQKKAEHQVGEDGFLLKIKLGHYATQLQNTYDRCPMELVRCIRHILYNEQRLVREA
Procedure: For the microscale thermophoresis (MST) studies, we prepared 16 two-fold serial dilutions of compounds starting from 500 μM. Titration series were prepared that contained 10 μL of compounds’ solutions of varying concentrations and 10 μL RED-NHS 2nd Generation labeled STAT5B NTD with a concentration of 168 nM for compound PhP097, and a concentration of 84 nM for compound PhP065. Final buffer composition included 1X PBS containing 0.5% DMSO. All measurements were taken in Premium Coated Capillaries on a Monolith NT.115 instrument (NanoTemper Technologies, Munich, Germany) using 80% infrared laser power for compound PhP097, 60% infrared laser power for compound PhP065, and an LED excitation source with λ = 650 nm at a temperature of 25 °C. Results were expressed as the mean of two separate experiments, with three technical replicates each. GraphPad Prism 9.5.1 software was used to fit the data and to determine the KD values.

[1] = µM] -0.0102833, runs/replicates

Question: CC1(CCC(=O)NCCc2csc(-c3ccccc3)n2)N=N1 [PhP097, N1=NC1(C)CCC(=O)NCCc2csc(n2)-c3ccccc3] was tested. Which IC50 (MOLM-13 cells) did it give?
Answer: The IC50 was 68.2 µM.

Question: What about the ΔFnorm (STAT5B NTD; µM] 0.591766, runs/replicates) of the same compound?
Answer: Its ΔFnorm is 5.764 ‰ and 7.778 ‰ and 6.699 ‰ and -1.199 ‰ and -1.302 ‰ and -4.005 ‰.

Question: What about the ΔFnorm (STAT5B NTD; µM] 0.89279, runs/replicates) of the same compound?
Answer: Its ΔFnorm is -7.395 ‰ and -5.5397 ‰ and -5.711 ‰ and 0.2163 ‰ and 4.053 ‰ and 0.9615 ‰.

Question: And the ΔFnorm (STAT5B NTD; µM] 1.19382, runs/replicates)?
Answer: Its ΔFnorm is -4.091 ‰ and -1.8497 ‰ and -1.165 ‰ and -5.318 ‰ and -5.614 ‰ and -5.274 ‰.

Question: What about the ΔFnorm (STAT5B NTD; µM] 1.49485, runs/replicates) of the same compound?
Answer: Its ΔFnorm is -4.445 ‰ and -4.535 ‰ and -5.873 ‰ and -8.126 ‰ and -4.727 ‰ and -7.108 ‰.

Question: And the ΔFnorm (STAT5B NTD; µM] 1.79588, runs/replicates)?
Answer: The ΔFnorm was -8.587 ‰ and -6.363 ‰ and -6.457 ‰ and -11.6433 ‰ and -8.368 ‰ and -12.1062 ‰.

Question: What about the ΔFnorm (STAT5B NTD; µM] 2.09691, runs/replicates) of the same compound?
Answer: The ΔFnorm was -14.77 ‰ and -11.6203 ‰ and -10.8651 ‰ and -10.9408 ‰ and -5.699 ‰ and -12.7461 ‰.

Question: What about the ΔFnorm (STAT5B NTD; µM] 2.39794, runs/replicates) of the same compound?
Answer: The ΔFnorm was -1.7884 ‰ and 0.2047 ‰ and 0.7983 ‰ and -10.6185 ‰ and -13.0284 ‰ and -12.5258 ‰.

Question: What about the ΔFnorm (STAT5B NTD; [1]) of the same compound?
Answer: The ΔFnorm was 4.6455 ‰ and 5.66 ‰ and 7.637 ‰ and -9.481 ‰ and -8.884 ‰ and -7.417 ‰.

Question: And the ΔFnorm (STAT5B NTD; µM] -0.311313, runs/replicates)?
Answer: The ΔFnorm was -5.603 ‰ and -3.243 ‰ and -1.459 ‰ and 3.271 ‰ and 2.052 ‰ and 1.015 ‰.

Question: And the ΔFnorm (STAT5B NTD; µM] -0.913284, runs/replicates)?
Answer: Its ΔFnorm is 4.1952 ‰ and 9.04 ‰ and 7.8226 ‰ and -0.03038 ‰ and -2.726 ‰ and -0.9924 ‰.

Question: And the ΔFnorm (STAT5B NTD; µM] -1.5157, runs/replicates)?
Answer: The ΔFnorm was 0.7011 ‰ and -0.01526 ‰ and 1.427 ‰ and -0.3532 ‰.

Question: What about the Fnorm (STAT5B NTD; µM] 0.591766, runs/replicates) of the same compound?
Answer: The Fnorm was 720.204 ‰ and 719.528 ‰ and 720.009 ‰ and 710.951 ‰ and 712.028 ‰ and 710.045 ‰.

Question: And the Fnorm (STAT5B NTD; µM] 0.89279, runs/replicates)?
Answer: Its Fnorm is 707.045 ‰ and 706.21 ‰ and 707.599 ‰ and 712.366 ‰ and 717.383 ‰ and 715.011 ‰.

Question: And the Fnorm (STAT5B NTD; [1])?
Answer: The Fnorm was 719.086 ‰ and 717.41 ‰ and 720.947 ‰ and 702.669 ‰ and 704.446 ‰ and 706.633 ‰.

Question: What about the Fnorm (STAT5B NTD; µM] -0.311313, runs/replicates) of the same compound?
Answer: The Fnorm was 708.837 ‰ and 708.507 ‰ and 711.851 ‰ and 715.421 ‰ and 715.382 ‰ and 715.065 ‰.

Question: And the Fnorm (STAT5B NTD; µM] -0.913284, runs/replicates)?
Answer: Its Fnorm is 718.635 ‰ and 720.79 ‰ and 721.133 ‰ and 712.12 ‰ and 710.604 ‰ and 713.058 ‰.

Question: What about the Fnorm (STAT5B NTD; µM] -1.5157, runs/replicates) of the same compound?
Answer: The Fnorm was 715.141 ‰ and 711.735 ‰ and 714.737 ‰ and 711.797 ‰ and 713.155 ‰ and 719.464 ‰.

Question: What about the Kd (STAT5B NTD; MST, without irradiation, 25 °C) of the same compound?
Answer: The Kd was 18.1 µM.
